MIC and IC50 data for 19 compounds are collected here from patent publication US10947205B2, “Oxazolidinone compounds and methods of use thereof as antibacterial agents” (priority 2015, dated 2021).

Assay [1] has as its system Staphylococcus aureus (methicillin resistant, MB5393, COL). Kind of assay: microbe, parasite or virus in culture. In kind it is cell-based. The note with it: MRSA, 22 h, read-out: MRSA COL MITC95 μM. How it is done:
Inhibition of Staphylococcus aureus (methicillin resistant, MB5393, COL) growth was assessed in cation adjusted Mueller Hinton II broth (CAMHB) in 384-well microtiter plates. Bacteria were dispensed into microtiter plates at approximately 5×10^5 actively growing cells in 49 μL volumes per well. Cells were exposed to 2-fold serial dilutions of compounds from 200 μM to 0.195 μM and growth compared to drug-free control. Compound dilutions were prepared in 100% dimethylsulfoxide and added to microtiter plates in 1 μL volumes per well. Full growth control wells contained dimethylsufoxide and bacteria. No growth control wells contained dimethysulfoxide and CAMHB but no bacteria. Growth inhibition was assessed after a 22-hour growth period by measuring optical density using a spectrophotometer. The lowest concentration of test compound required to inhibit 95% of the growth of the bacteria was defined as the MITC95. All studies were done in a BSL2 facility.

The test system of assay [2] is mitochondrial protein synthesis in HepG2 cells (COX-I / SDH-A). As to the kind of experiment: Mitochondrial protein synthesis assay. Type of assay: cell-based. The note with it: Homo sapiens, read-out: MPS IC50_μM. How it is done:
(§1) Inhibition of mitochondrial protein synthesis was assessed in HepG2 cells by comparing the levels of two subunits of oxidative phosphorylation enzyme complexes, subunit I of Complex IV (COX-I) and the 70 kDa subunit of Complex II (SDH-A). COX-I is mitochondrial DNA encoded and SDH-A is nuclear DNA encoded. HepG2 cells were seeded in 96-well collagen coated plates at 8,000 cells per well and exposed to 2-fold serial dilutions of compounds from 100 LM to 6.25 μM. Microtiter plates were incubated for approximately 5 replication cycles (4 days) prior to assessment of protein levels using a kit as described by the manufacturer (ab 110217 MitoBiogenesis In Cell ELISA Kit, Abcam, Cambridge, Mass.). Inhibition of mitochondrial protein synthesis was expressed as a ratio of COX-1 to SDH-A levels.
as §1, with “μM” for “LM”

Assay [3] deals with Mycobacterium tuberculosis (Mtb). Kind of assay: microbe, parasite or virus in culture. In kind it is cell-based, Mycobacterium tuberculosis H37Rv (Mtb-GFP). To be noted: 168 h.
Setting [4] is: 96 h, HepG2 cells, 4 days, ratio of COX-1 to SDH-A levels.
[5] abbreviates: pH 6.8, read-out: Mtb Cho MITC95_μM.
[6] abbreviates: pH 6.8, read-out: Mtb Glu MITC95_μM.

≈ marks a conversion by molar mass, not a printed value. Where two headings read alike, the source gives them in different places.

Consider `CSc1ccc(-c2c(F)cc(N3C[C@H](CNC(C)=O)OC3=O)cc2F)cc1` [Example 47, (S)—N-((3-(2,6-difluoro-4′-(methylthio)-[1,1′-biphenyl]-4-yl)-2-oxooxazolidin-5-yl)methyl)acetamide], for which the MIC in assay [1] was 0.781 µM (≈ 0.307 µg/mL); in assay [3] (setting [5]), 0.01 µM (≈ 0.00392 µg/mL); in assay [3] (setting [6]), 0.03 µM (≈ 0.0118 µg/mL). The IC50 in assay [2] (setting [4]) is greater than 20 µM.

Consider `NC[C@H]1CN(c2ccc(-c3ccccc3)c(F)c2)C(=O)O1` [Example 39, (5S)-5-(aminomethyl)-3-(2-fluorobiphenyl-4-yl)-1,3-oxazolidin-2-one], for which the values for the MIC in assay [1], in assay [3] (setting [5]) and in assay [3] (setting [6]) were 200 µM (≈ 57.3 µg/mL), 0.78 µM (≈ 0.223 µg/mL) and 0.585 µM (≈ 0.167 µg/mL), respectively. Besides, the IC50 in assay [2] (setting [4]) is greater than 20 µM.

With `NC[C@H]1CN(c2ccc(-c3ccnc4[nH]ccc34)c(F)c2)C(=O)O1` [Example 31, (5S)-5-(aminomethyl)-3-[3-fluoro-4-(1H-pyrrolo[2,3-b]pyridin-4-yl)phenyl]-1,3-oxazolidin-2-one], the MIC was found to be 200 µM (≈ 65.3 µg/mL) in assay [1], 0.78 µM (≈ 0.255 µg/mL) in assay [3] (setting [5]) and 0.39 µM (≈ 0.127 µg/mL) in assay [3] (setting [6]). Further, in assay [2] (setting [4]), the IC50 is greater than 20 µM.

In the case of `NC[C@H]1CN(c2ccc(-c3ccc4nncn4c3)c(F)c2)C(=O)O1` [Example 9, (5S)-5-(aminomethyl)-3-(3-fluoro-4-[1,2,4]triazolo[4,3-a]pyridin-6-ylphenyl)-1,3-oxazolidin-2-one], the results for the MIC in assay [1], in assay [3] (setting [5]) and in assay [3] (setting [6]) were 200 µM (≈ 65.5 µg/mL), 0.14 µM (≈ 0.0458 µg/mL) and 0.09 µM (≈ 0.0295 µg/mL), respectively. Further, in assay [2] (setting [4]), the IC50 was greater than 20 µM.

As to `COc1ncc(-c2ccc(N3C[C@H](CN)OC3=O)cc2F)cn1` [Example 28, (5S)-5-(aminomethyl)-3-[3-fluoro-4-(2-methoxypyrimidin-5-yl)phenyl]-1,3-oxazolidin-2-one], the MIC in assay [1] was determined as 200 µM (≈ 63.7 µg/mL); in assay [3] (setting [5]), 1.14 µM (≈ 0.363 µg/mL); in assay [3] (setting [6]) it was 0.3 µM (≈ 0.0955 µg/mL). In addition, in assay [2] (setting [4]), the IC50 was greater than 100 µM.

Regarding `NC[C@H]1CN(c2ccc(-c3ccc4cc[nH]c4c3)c(F)c2)C(=O)O1` [Example 27, (5S)-5-(aminomethyl)-3-[3-fluoro-4-(1H-indol-6-yl)phenyl]-1,3-oxazolidin-2-one], the results for the MIC in assay [1], in assay [3] (setting [5]) and in assay [3] (setting [6]) were 200 µM (≈ 65.1 µg/mL), 0.78 µM (≈ 0.254 µg/mL) and 0.39 µM (≈ 0.127 µg/mL), respectively. In addition, in assay [2] (setting [4]), the IC50 is greater than 50 µM.

As to `CCNC(=O)NC[C@H]1CN(c2ccc(-c3ccc(SC)cc3)c(F)c2)C(=O)O1` [Example 58, (S)-1-ethyl-3-((3-(2-fluoro-4′-(methylthio)-[1,1′-biphenyl]-4-yl)-2-oxooxazolidin-5-yl)methyl)urea], the MIC in assay [1] stood at 200 µM (≈ 80.7 µg/mL); in assay [3] (setting [5]) it was 0.19 µM (≈ 0.0767 µg/mL); in assay [3] (setting [6]) it was 0.58 µM (≈ 0.234 µg/mL). Also, the IC50 in assay [2] (HepG2, 96 h) was greater than 20 µM.

Regarding `CS(=N)(=O)c1ccc(-c2ccc(N3C[C@H](Cn4ccnn4)OC3=O)cc2F)cc1` (stereo partly drawn) [Example 64, (5R)-5-((1H-1,2,3-triazol-1-yl)methyl)-3-(2-fluoro-4′-(S-methylsulfonimidoyl)-[1,1′-biphenyl]-4-yl)oxazolidin-2-one], the MIC was 0.39 µM (≈ 0.162 µg/mL) in assay [1], 0.09 µM (≈ 0.0374 µg/mL) in assay [3] (setting [5]) and 0.09 µM (≈ 0.0374 µg/mL) in assay [3] (setting [6]). Moreover, the IC50 in assay [2] (setting [4]) was greater than 20 µM.

On to `CC(C)(C)OC(=O)N1CC=C(c2ccc(N3C[C@H](CN)OC3=O)cc2F)CC1` [Example 26, tert-butyl 4-{4-[(5S)-5-(aminomethyl)-2-oxo-1,3-oxazolidin-3-yl]-2-fluorophenyl}-3,6-dihydropyridin-1(2H)-carboxylate], for which the MIC was 200 µM (≈ 78.3 µg/mL) in assay [1], 1.5 µM (≈ 0.587 µg/mL) in assay [3] (setting [5]) and 0.78 µM (≈ 0.305 µg/mL) in assay [3] (setting [6]). In assay [2] (setting [4]), the IC50 was greater than 20 µM.

Regarding `N#Cc1cccc(-c2ccc(N3C[C@H](CN)OC3=O)cc2F)c1` [Example 13, 4′-[(5S)-5-(aminomethyl)-2-oxo-1,3-oxazolidin-3-yl]-2′-fluorobiphenyl-3-carbonitrile], the MIC in assay [1] turned out to be 200 µM (≈ 62.3 µg/mL); in assay [3] (setting [5]) it was 0.19 µM (≈ 0.0592 µg/mL); in assay [3] (setting [6]) it was 0.19 µM (≈ 0.0592 µg/mL). For the same compound, the IC50 in assay [2] (setting [4]) was greater than 20 µM.

Turning to `NC[C@H]1CN(c2ccc(-c3ccn4ncnc4c3)c(F)c2)C(=O)O1` [Example 8, (5S)-5-(aminomethyl)-3-(3-fluoro-4-[1,2,4]triazolo[1,5-a]pyridin-7-ylphenyl)-1,3-oxazolidin-2-one], the figures for the MIC in assay [1], in assay [3] (setting [5]) and in assay [3] (setting [6]) were 200 µM (≈ 65.5 µg/mL), 0.04 µM (≈ 0.0131 µg/mL) and 0.04 µM (≈ 0.0131 µg/mL), respectively. Further, the IC50 in assay [2] (setting [4]) is greater than 20 µM.

For the compound `NC[C@H]1CN(c2ccc(-c3cncnc3)c(F)c2)C(=O)O1` [Example 25, (5S)-5-(aminomethyl)-3-(3-fluoro-4-pyrimidin-5-ylphenyl)-1,3-oxazolidin-2-one], the MIC in assay [1] was determined as 200 µM (≈ 57.7 µg/mL); in assay [3] (setting [5]) it was 0.19 µM (≈ 0.0548 µg/mL); in assay [3] (setting [6]), 0.04 µM (≈ 0.0115 µg/mL). The IC50 in assay [2] (setting [4]) was greater than 20 µM.

Turning to `NC[C@H]1CN(c2ccc(-c3ccn[nH]3)c(F)c2)C(=O)O1` [Example 16, (5S)-5-(aminomethyl)-3-[3-fluoro-4-(1H-pyrazol-5-yl)phenyl]-1,3-oxazolidin-2-one], the MIC amounted to 200 µM (≈ 55.3 µg/mL) in assay [1], 0.39 µM (≈ 0.108 µg/mL) in assay [3] (setting [5]) and 0.19 µM (≈ 0.0525 µg/mL) in assay [3] (setting [6]). Further, the IC50 in assay [2] (setting [4]) was greater than 20 µM.

`NCc1ccc(F)c(-c2ccc(N3C[C@H](Cn4ccnn4)OC3=O)cc2F)c1` [Example 55, (5R)-3-[5′-(aminomethyl)-2,2′-difluorobiphenyl-4-yl]-5-(1H-1,2,3-triazol-1-ylmethyl)-1,3-oxazolidin-2-one]: the MIC in assay [1] amounted to 50 µM (≈ 19.3 µg/mL); in assay [3] (setting [5]) it was 0.19 µM (≈ 0.0732 µg/mL); in assay [3] (setting [6]), 0.19 µM (≈ 0.0732 µg/mL). Further, the IC50 in assay [2] (setting [4]) is greater than 20 µM.

As for `NC[C@H]1CN(c2ccc(-c3ccc(C4CC4)nc3)c(F)c2)C(=O)O1` [Example 33, (5S)-5-(aminomethyl)-3-[4-(6-cyclopropylpyridin-3-yl)-3-fluorophenyl]-1,3-oxazolidin-2-one], the MIC in assay [1] came out at 200 µM (≈ 65.5 µg/mL); in assay [3] (setting [5]), 0.19 µM (≈ 0.0622 µg/mL); in assay [3] (setting [6]), 0.845 µM (≈ 0.277 µg/mL). For the same compound, in assay [2] (setting [4]), the IC50 is greater than 20 µM.

`CSc1ccc(-c2ccc(N3C[C@H](CN)OC3=O)cc2F)cc1` [Example 1, (S)-5-(aminomethyl)-3-(2-fluoro-4′-(methylthio)-[1,1′-biphenyl]-4-yl)oxazolidin-2-one]: the MIC in assay [1] is 25 µM (≈ 8.31 µg/mL); in assay [3] (setting [5]), 0.03 µM (≈ 0.00997 µg/mL); in assay [3] (setting [6]), 0.04 µM (≈ 0.0133 µg/mL). Also, the IC50 in assay [2] (setting [4]) is 12.2 µM.

On to `COC(=O)NC[C@H]1CN(c2ccc(-c3ccc(SC)cc3)c(F)c2)C(=O)O1` [Example 62, (S)-methyl ((3-(2-fluoro-4′-(methylthio)-[1,1′-biphenyl]-4-yl)-2-oxooxazolidin-5-yl)methyl)carbamate], for which the MIC in assay [1] came to 200 µM (≈ 78.1 µg/mL); in assay [3] (setting [5]), 0.04 µM (≈ 0.0156 µg/mL); in assay [3] (setting [6]), 0.04 µM (≈ 0.0156 µg/mL). For the same compound, the IC50 in assay [2] (setting [4]) was found to be 10 µM.

`Cn1cc(-c2ccc(N3C[C@H](CN)OC3=O)cc2F)cn1` [Example 37, (5S)-5-(aminomethyl)-3-[3-fluoro-4-(1-methyl-1H-pyrazol-4-yl)phenyl]-1,3-oxazolidin-2-one]: the MIC worked out at 200 µM (≈ 58.1 µg/mL) in assay [1], 0.39 µM (≈ 0.113 µg/mL) in assay [3] (setting [5]) and 0.29 µM (≈ 0.0842 µg/mL) in assay [3] (setting [6]). In addition, the IC50 in assay [2] (setting [4]) is greater than 20 µM.

As for `NC[C@H]1CN(c2cnc(N3CCS(=O)(=O)CC3)c(F)c2)C(=O)O1` [Example 48, (S)-5-(aminomethyl)-3-(6-(1,1-dioxidothiomorpholino)-5-fluoropyridin-3-yl)oxazolidin-2-one], the MIC stood at 200 µM (≈ 68.9 µg/mL) in assay [1], 0.78 µM (≈ 0.269 µg/mL) in assay [3] (setting [5]) and 0.39 µM (≈ 0.134 µg/mL) in assay [3] (setting [6]). In assay [2] (setting [4]), the IC50 is greater than 100 µM.
